{"source": "BindingDB's records for doi:10.1016/j.bmc.2017.06.018", "about": "(Chungnam National University, 2017)"}
{"test": "Inhibition of IL-5 in mouse Y16 cells assessed as reduction in cell proliferation after 48 hrs by WST-1 assay", "units": {"IC50": "µM"}}
{"smiles": "CCCC(=O)N(CCO)Cc1coc2cccc(OCC3CCCCC3)c2c1=O", "IC50": 25.3}
{"smiles": "COc1ccc(CC(=O)N(CCO)Cc2coc3cccc(OCC4CCCCC4)c3c2=O)cc1", "IC50": 17.9}
{"smiles": "CC(C)(C)CCOc1cccc2occ(CN(CCO)C(=O)Cc3ccccc3)c(=O)c12", "IC50": "> 30"}
{"smiles": "CC(C)CCOc1cccc2occ(CN(CCO)C(=O)Cc3ccccc3)c(=O)c12", "IC50": "> 30"}
{"smiles": "O=c1c(-c2ccc(O[C@H]3O[C@@H](CO)[C@H](O)[C@@H](O)[C@@H]3O)cc2)coc2cc(O)cc(O)c12", "IC50": 10.6}
{"smiles": "O=C(Cc1ccccc1)N(CCO)Cc1coc2cccc(OCC3CCCCC3)c2c1=O", "IC50": 10}
{"smiles": "CCCNC(=O)N(CCO)Cc1coc2cccc(OCC3CCCCC3)c2c1=O", "IC50": "> 30"}
{"smiles": "CC(C)NC(=O)N(CCO)Cc1coc2cccc(OCC3CCCCC3)c2c1=O", "IC50": "> 30"}
{"smiles": "O=C(Nc1ccccc1)N(CCO)Cc1coc2cccc(OCC3CCCCC3)c2c1=O", "IC50": 17}
{"smiles": "O=C(NC1CCCCC1)N(CCO)Cc1coc2cccc(OCC3CCCCC3)c2c1=O", "IC50": 17}
{"smiles": "O=C(Nc1ccc(Cl)cc1)N(CCO)Cc1coc2cccc(OCC3CCCCC3)c2c1=O", "IC50": "> 30"}
{"smiles": "COc1ccc(NC(=O)N(CCO)Cc2coc3cccc(OCC4CCCCC4)c3c2=O)cc1", "IC50": 18}
{"smiles": "O=C(NCc1ccccc1)N(CCO)Cc1coc2cccc(OCC3CCCCC3)c2c1=O", "IC50": 18}
{"smiles": "O=C(NCCCc1ccccc1)N(CCO)Cc1coc2cccc(OCC3CCCCC3)c2c1=O", "IC50": 15}
{"smiles": "CC(C)(C)CCOc1cccc2occ(CN(CCO)C(=O)Nc3ccccc3)c(=O)c12", "IC50": "> 30"}
{"smiles": "CC(C)CCOc1cccc2occ(CN(CCO)C(=O)Nc3ccccc3)c(=O)c12", "IC50": "> 30"}
{"smiles": "CCOC(=O)N(CCO)Cc1coc2cccc(OCC3CCCCC3)c2c1=O", "IC50": 20.2}
{"smiles": "O=C(Oc1ccccc1)N(CCO)Cc1coc2cccc(OCC3CCCCC3)c2c1=O", "IC50": 25}
{"smiles": "CC(C)(C)CCOc1cccc2occ(CN(CCO)C(=O)Oc3ccccc3)c(=O)c12", "IC50": "> 30"}
{"smiles": "CC(C)CCOc1cccc2occ(CN(CCO)C(=O)Oc3ccccc3)c(=O)c12", "IC50": "> 30"}
{"smiles": "CCC(=O)N(CCO)Cc1coc2cccc(OCC3CCCCC3)c2c1=O", "IC50": 25.2}
{"smiles": "CCNC(=O)N(CCO)Cc1coc2cccc(OCC3CCCCC3)c2c1=O", "IC50": "> 30"}
